The experiment concerns the target T1, F508delCFTR cell surface expression in CFBE41o-F508delCFTR-HRP cells (Homo sapiens, UniProt P13569, DEL508-508).
T1 construct: fused on or other part: Horseradish peroxidase (HRP) reporter inserted in the fourth exofacial (extracellular) loop of CFTR; expression is doxycycline-inducible
As to the kind of experiment: Cell Surface Expression-Horse Radish Peroxidase (CSE-HRP) Assay. To be noted: for EC50: CFBE41o-F508delCFTR-HRP cells, 18-24 hours at 33° C., 8-point curve, highest concentration 20 μM; for Maximum % activity (%): maximum at any tested concentration, normalized to on-plate positive control (3 μM). The experiment is classed as cell-based. Put shortly: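 CFBE41o- cells with HRP-tagged F508delCFTR, expression induced by 0.5 μg/mL doxycycline for 72 h at 37 °C, then compound for 18-24 h at 33 °C (8-point, 3-fold, top 20 μM). Surface HRP measured by luminol luminescence; % activity normalised to 3 μM positive-control corrector; EC50 from variable-slope sigmoidal fit, three replicate plates.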

SMILES strings stand for the structures.

What is called EC50 is the midpoint of the concentration-response curve. Higher therefore signals a need for much substance.

T1 sequence (P13569 with tags, fused parts or gaps DEL508-508 limits assumed): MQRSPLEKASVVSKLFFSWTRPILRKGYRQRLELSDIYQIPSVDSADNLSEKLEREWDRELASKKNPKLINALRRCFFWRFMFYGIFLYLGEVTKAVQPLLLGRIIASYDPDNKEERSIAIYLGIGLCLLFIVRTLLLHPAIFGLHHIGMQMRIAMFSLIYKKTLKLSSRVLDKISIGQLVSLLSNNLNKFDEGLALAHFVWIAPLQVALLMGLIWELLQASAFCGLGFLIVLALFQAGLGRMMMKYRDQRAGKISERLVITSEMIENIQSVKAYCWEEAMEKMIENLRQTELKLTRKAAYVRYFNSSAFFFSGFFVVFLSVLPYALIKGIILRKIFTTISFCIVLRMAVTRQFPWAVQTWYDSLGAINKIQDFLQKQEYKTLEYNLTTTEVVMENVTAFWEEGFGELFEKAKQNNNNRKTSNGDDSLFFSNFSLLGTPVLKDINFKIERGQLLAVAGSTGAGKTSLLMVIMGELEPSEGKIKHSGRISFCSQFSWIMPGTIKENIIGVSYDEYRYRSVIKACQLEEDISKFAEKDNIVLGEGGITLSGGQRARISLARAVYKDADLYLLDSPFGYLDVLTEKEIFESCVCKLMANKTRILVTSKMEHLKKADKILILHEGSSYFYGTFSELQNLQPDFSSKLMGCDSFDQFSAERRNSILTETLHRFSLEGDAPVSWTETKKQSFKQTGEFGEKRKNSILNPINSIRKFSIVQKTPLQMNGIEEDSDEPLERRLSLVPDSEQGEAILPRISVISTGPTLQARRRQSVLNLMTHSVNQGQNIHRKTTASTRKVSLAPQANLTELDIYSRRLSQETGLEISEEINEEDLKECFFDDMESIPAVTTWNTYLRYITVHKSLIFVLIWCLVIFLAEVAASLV
T1 sequence (P13569 919-1480 limits assumed, stated change not applied): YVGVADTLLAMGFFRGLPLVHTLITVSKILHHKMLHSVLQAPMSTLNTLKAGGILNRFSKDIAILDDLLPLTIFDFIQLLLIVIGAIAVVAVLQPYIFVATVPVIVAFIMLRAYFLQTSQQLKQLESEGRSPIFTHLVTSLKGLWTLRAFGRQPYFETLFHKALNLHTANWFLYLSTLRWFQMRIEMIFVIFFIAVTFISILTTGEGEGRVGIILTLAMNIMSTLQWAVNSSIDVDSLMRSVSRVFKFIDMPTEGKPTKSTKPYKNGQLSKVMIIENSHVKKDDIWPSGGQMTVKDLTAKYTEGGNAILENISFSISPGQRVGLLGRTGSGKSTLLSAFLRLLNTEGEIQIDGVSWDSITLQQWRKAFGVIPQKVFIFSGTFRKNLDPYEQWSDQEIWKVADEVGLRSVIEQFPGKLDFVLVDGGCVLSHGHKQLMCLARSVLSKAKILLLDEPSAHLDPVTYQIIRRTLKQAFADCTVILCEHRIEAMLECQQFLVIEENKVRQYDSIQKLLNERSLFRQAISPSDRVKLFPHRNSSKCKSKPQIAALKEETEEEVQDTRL

In the case of `C[C@]1(C(=O)N[C@@H]2C[C@H](C3CCN(C[C@H](O)CO)CC3)Oc3cc(OC(F)(F)F)ccc32)COc2cc3c(cc21)OC(F)(F)O3` [Example 189, (7R)—N-[(2R,4R)-2-{1-[(2S)-2,3-dihydroxypropyl]piperidin-4-yl}-7-(trifluoromethoxy)-3,4-dihydro-2H-1-benzopyran-4-yl]-2,2-difluoro-7-methyl-6,7-dihydro-2H-furo[2,3-f][1,3]benzodioxole-7-carboxamide], the 50% effective concentration (EC50) came to 2030 nM and the “Maximum % activity (%)” value is reported as 186%.
In the same order, the values of `Cc1ccc(NC(=O)C2(C)CCc3cc4c(cc32)OC(F)(F)O4)nc1-c1cccc(C(=O)O)c1` (stereo not shown) [Example 51, 3-{6-[(2,2-difluoro-5-methyl-6,7-dihydro-2H,5H-indeno[5,6-d][1,3]dioxole-5-carbonyl)amino]-3-methylpyridin-2-yl}benzoic acid] are 930 nM and 153%.
In the same order, the values of `C[C@]1(C(=O)Nc2cc(Br)cn(C[C@@H](O)CO)c2=O)COc2cc3c(cc21)OC(F)(F)O3` [Example 98, (7R)—N-{5-bromo-1-[(2R)-2,3-dihydroxypropyl]-2-oxo-1,2-dihydropyridin-3-yl}-2,2-difluoro-7-methyl-6,7-dihydro-2H-furo[2,3-f][1,3]benzodioxole-7-carboxamide] are 1140 nM and 143%.
On the same counts, the results for `C[C@]1(C(=O)N[C@@H]2C[C@H]([C@H]3CC[C@H](C(=O)N4CCC(O)CC4)CC3)Oc3cc(OC(F)(F)F)ccc32)COc2cc3c(cc21)OC(F)(F)O3` [Example 265, (7R)-2,2-difluoro-N-[(2R,4R)-2-[trans-4-(4-hydroxypiperidine-1-carbonyl)cyclohexyl]-7-(trifluoromethoxy)-3,4-dihydro-2H-1-benzopyran-4-yl]-7-methyl-6,7-dihydro-2H-furo[2,3-f][1,3]benzodioxole-7-carboxamide] are 80 nM and 173%.
Regarding `C[C@]1(C(=O)N[C@@H]2C[C@H]([C@H]3CC[C@H](C(=O)N4CCC(F)(F)CC4)CC3)Oc3cc(OC(F)(F)F)ccc32)COc2cc3c(cc21)OC(F)(F)O3` [Example 270, (7R)—N-[(2R,4R)-2-[trans-4-(4,4-difluoropiperidine-1-carbonyl)cyclohexyl]-7-(trifluoromethoxy)-3,4-dihydro-2H-1-benzopyran-4-yl]-2,2-difluoro-7-methyl-6,7-dihydro-2H-furo[2,3-f][1,3]benzodioxole-7-carboxamide], the EC50 amounted to 180 nM and the “Maximum % activity (%)” value stood at 229%.
Regarding `COc1ccc2c(c1)O[C@@H](c1nnn[nH]1)C[C@H]2NC(=O)[C@@]1(C)COc2cc3c(cc21)OC(F)(F)O3` [Example 202, (7R)-2,2-difluoro-N-[(2R,4R)-7-methoxy-2-(1H-tetrazol-5-yl)-3,4-dihydro-2H-1-benzopyran-4-yl]-7-methyl-6,7-dihydro-2H-furo[2,3-f][1,3]benzodioxole-7-carboxamide], the EC50 was greater than 20000 nM and the “Maximum % activity (%)” value stood at 8%.
On the same counts, the results for `C[C@]1(C(=O)Nc2ccc(N3CCCC3)cn2)COc2cc3c(cc21)OC(F)(F)O3` [Example 80, (7R)-2,2-difluoro-7-methyl-N-[5-(pyrrolidin-1-yl)pyridin-2-yl]-6,7-dihydro-2H-furo[2,3-f][1,3]benzodioxole-7-carboxamide] are 4750 nM and 147%.
In the same order, the values of `C[C@]1(C(=O)N[C@@H]2C[C@H]([C@H]3CC[C@H](C(=O)N4CCN(CCO)CC4)CC3)Oc3cc(OC(F)(F)F)ccc32)COc2cc3c(cc21)OC(F)(F)O3` [Example 266, (7R)-2,2-difluoro-N-[(2R,4R)-2-{trans-4-[4-(2-hydroxyethyl)piperazine-1-carbonyl]cyclohexyl}-7-(trifluoromethoxy)-3,4-dihydro-2H-1-benzopyran-4-yl]-7-methyl-6,7-dihydro-2H-furo[2,3-f][1,3]benzodioxole-7-carboxamide] are 110 nM and 160%.

The values above are taken from US9840513B2 (AbbVie S.à.r.l., priority 2015, dated 2017).
